Data taken from patent publication US11311542B2, “Inhibitors of cyclin dependent kinase 7 (CDK7)” (Syros Pharmaceuticals, Inc., priority 2018, dated 2022).

Assays:
COV504 cells = experiment: Inhibition of cell proliferation (CyQUANT Direct), COV504; type: cell-based, human; conditions: Homo sapiens, COV504, 72-hour
Protocol: (§1) HCC70 and MB453 cells are cell lines derived from human triple negative breast cancer COV318 and COV504 cells are cell lines derived from human ovarian cancer. Representative compounds of the invention were tested at different concentrations (from 4 μM to 126.4 pM; 0.5 log serial dilutions) for their ability to inhibit the proliferation of each of these cell lines. Known CDK inhibitors dinaciclib or N-((1S,3R)-3-((5-chloro-4-(1H-indol-3-yl) pyrimidin-2-yl)amino)cyclohexyl)-5-((E)-4-(dimethylamino)but-2-enamido)picolinamide and triptolide were used as positive controls. Cells were seeded at approximately 2,000 cells/well and grown in ATCC-formulated RPMI-1640 Medium (ATCC 30-2001)+10% FBS. The cells were cultured at 37° C. in a humidified chamber in the presence of 5% CO2. Proliferation assays were conducted over a 72-hour time period. CyQUANT® Direct Cell Proliferation Assay (Life Technologies, Chicago, Ill. USA) was used to assess the anti-proliferative effects of the compounds following manufacturer's directions and utilizing the reagents supplied with the CyQUANT® Direct Cell kit.

CDK2/Cyclin E1 complex = CDK2/Cyclin E1 complex (Homo sapiens, UniProt P24941); experiment: CDK2 kinase inhibition assay (Caliper/LabChip EZ Reader)
MB453 cells = experiment: Inhibition of cell proliferation (CyQUANT Direct), MB453; type: cell-based, human; conditions: Homo sapiens, MB453, 72-hour
Protocol: as §1

COV318 cells = experiment: Inhibition of cell proliferation (CyQUANT Direct), COV318; type: cell-based, human; conditions: Homo sapiens, COV318, 72-hour
Protocol: as §1

[1] = biological target: CDK12 (aa686-1082)/Cyclin K complex (Homo sapiens, UniProt Q9NYV4); experiment: CDK12 kinase inhibition assay (Caliper/LabChip EZ Reader)
Sequence of CDK12 (aa686-1082)/Cyclin K complex (Q9NYV4 686-1082): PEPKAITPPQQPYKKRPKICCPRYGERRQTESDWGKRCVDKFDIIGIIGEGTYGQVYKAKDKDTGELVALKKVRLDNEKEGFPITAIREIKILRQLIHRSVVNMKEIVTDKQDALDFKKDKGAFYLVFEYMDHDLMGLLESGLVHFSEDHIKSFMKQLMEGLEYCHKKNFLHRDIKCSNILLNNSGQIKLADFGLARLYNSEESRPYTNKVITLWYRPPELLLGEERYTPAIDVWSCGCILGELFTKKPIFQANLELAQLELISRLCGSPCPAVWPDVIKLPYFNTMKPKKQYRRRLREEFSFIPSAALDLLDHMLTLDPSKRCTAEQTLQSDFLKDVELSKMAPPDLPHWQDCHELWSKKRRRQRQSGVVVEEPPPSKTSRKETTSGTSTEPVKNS
Sequence of CDK12 (aa686-1082)/Cyclin K complex (O75909 whole entry partner, the tested form may be a part): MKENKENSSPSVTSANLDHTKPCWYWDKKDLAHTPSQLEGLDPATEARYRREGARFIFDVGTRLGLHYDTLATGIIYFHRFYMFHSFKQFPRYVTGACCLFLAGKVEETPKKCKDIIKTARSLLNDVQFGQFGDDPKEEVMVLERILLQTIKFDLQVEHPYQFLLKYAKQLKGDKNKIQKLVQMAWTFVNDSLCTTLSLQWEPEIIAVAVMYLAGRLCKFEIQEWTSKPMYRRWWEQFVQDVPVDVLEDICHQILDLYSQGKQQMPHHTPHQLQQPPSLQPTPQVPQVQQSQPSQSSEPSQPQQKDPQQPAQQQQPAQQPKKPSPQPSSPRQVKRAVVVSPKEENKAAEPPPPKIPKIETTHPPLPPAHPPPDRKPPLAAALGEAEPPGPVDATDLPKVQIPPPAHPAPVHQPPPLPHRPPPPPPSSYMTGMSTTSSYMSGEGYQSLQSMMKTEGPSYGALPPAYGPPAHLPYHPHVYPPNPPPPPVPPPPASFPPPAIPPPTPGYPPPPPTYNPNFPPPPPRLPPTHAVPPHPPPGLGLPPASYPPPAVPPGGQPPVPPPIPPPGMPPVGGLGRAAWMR
Protocol: Compounds described herein were assayed for inhibition of CDK7, CDK9, CDK12, and CDK2 activity at Biortus Biosciences (Jiangyin, Jiangsu Province, P.R. of China) using kinase assays for each CDK developed with a Caliper/LabChip EZ Reader (Perkin Elmer, Waltham, Mass.).
Furthermore, the CDK9 inhibition assay used CDK9/Cyclin T1 complex (8 nM) and “5-FAM-CDK9tide” peptide substrate (2 μM, synthesized fluorophore-labeled peptide with the following sequence: 5-FAM-GSRTPMY-NH2 (SEQ ID NO:2) where 5-FAM is defined above and NH2 signifies a C-terminal amide) with 10 mM MgCl2 in the buffer composition listed above. The CDK12 inhibition assay used CDK12 (aa686-1082)/Cyclin K complex (50 nM) and “5-FAM-CDK9tide” (2 μM) as defined above, with 2 mM MgCl2 in the buffer composition above. Additionally, the CDK2 inhibition assay used CDK2/Cyclin E1 complex (0.5 nM) and “5-FAM-CDK7tide” (2 μM; defined above) with 2 mM MgCl2 in the buffer composition above.
The incubation period at 27° C. for each CDK inhibition assay was chosen such that the fraction of phosphorylated peptide product produced in each assay, relative to the total peptide concentration, was approximately 20% (±5%) for the uninhibited kinase (35 min. for CDK7, 35 min. for CDK2, 3 hr. for CDK12, 15 min. for CDK9).

[2] = biological target: CDK7/Cyclin H/MAT1 complex (Homo sapiens, UniProt P50613); experiment: CDK7 kinase inhibition assay (Caliper/LabChip EZ Reader)
Sequence of CDK7/Cyclin H/MAT1 complex (P50613 whole entry): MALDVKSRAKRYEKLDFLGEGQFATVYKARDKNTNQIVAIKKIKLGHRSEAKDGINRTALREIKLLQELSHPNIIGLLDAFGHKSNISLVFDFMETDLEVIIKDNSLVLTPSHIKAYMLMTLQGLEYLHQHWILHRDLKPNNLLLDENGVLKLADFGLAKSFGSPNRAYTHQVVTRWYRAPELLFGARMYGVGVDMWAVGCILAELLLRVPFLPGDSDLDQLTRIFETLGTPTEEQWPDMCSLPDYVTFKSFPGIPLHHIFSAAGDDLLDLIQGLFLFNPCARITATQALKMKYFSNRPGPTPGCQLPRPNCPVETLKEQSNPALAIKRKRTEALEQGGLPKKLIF
Sequence of CDK7/Cyclin H/MAT1 complex (P51946 whole entry partner): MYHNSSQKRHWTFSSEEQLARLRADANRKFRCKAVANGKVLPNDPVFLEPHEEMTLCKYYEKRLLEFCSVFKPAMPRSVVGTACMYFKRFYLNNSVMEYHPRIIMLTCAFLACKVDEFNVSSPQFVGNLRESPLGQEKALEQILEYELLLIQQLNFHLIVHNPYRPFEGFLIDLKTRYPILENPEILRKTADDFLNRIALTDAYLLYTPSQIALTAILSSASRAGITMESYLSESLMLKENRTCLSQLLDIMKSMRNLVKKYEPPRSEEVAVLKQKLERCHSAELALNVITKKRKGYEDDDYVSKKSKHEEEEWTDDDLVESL
Sequence of CDK7/Cyclin H/MAT1 complex (P51948 whole entry partner): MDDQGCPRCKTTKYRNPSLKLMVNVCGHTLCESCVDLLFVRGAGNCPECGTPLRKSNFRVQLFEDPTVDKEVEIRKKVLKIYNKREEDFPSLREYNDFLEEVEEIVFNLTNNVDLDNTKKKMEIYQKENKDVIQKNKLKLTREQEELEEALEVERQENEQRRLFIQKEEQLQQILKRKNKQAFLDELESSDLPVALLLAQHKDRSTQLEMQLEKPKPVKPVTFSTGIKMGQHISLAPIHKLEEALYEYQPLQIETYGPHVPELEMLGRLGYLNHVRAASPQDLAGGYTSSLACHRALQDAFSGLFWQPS

CDK9/Cyclin T1 complex = CDK9/Cyclin T1 complex (Homo sapiens, UniProt P50750); experiment: CDK9 kinase inhibition assay (Caliper/LabChip EZ Reader)
Sequence of CDK9/Cyclin T1 complex (P50750 whole entry): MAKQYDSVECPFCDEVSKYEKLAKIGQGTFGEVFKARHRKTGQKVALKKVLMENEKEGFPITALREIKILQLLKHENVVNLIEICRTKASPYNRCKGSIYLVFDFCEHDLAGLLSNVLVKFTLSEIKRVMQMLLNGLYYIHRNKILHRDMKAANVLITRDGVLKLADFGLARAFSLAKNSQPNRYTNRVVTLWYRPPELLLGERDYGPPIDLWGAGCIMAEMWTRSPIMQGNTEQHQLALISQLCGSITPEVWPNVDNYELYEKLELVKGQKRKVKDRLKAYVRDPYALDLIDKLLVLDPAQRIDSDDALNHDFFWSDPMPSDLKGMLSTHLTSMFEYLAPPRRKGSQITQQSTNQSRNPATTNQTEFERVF
Sequence of CDK9/Cyclin T1 complex (O60563 whole entry partner): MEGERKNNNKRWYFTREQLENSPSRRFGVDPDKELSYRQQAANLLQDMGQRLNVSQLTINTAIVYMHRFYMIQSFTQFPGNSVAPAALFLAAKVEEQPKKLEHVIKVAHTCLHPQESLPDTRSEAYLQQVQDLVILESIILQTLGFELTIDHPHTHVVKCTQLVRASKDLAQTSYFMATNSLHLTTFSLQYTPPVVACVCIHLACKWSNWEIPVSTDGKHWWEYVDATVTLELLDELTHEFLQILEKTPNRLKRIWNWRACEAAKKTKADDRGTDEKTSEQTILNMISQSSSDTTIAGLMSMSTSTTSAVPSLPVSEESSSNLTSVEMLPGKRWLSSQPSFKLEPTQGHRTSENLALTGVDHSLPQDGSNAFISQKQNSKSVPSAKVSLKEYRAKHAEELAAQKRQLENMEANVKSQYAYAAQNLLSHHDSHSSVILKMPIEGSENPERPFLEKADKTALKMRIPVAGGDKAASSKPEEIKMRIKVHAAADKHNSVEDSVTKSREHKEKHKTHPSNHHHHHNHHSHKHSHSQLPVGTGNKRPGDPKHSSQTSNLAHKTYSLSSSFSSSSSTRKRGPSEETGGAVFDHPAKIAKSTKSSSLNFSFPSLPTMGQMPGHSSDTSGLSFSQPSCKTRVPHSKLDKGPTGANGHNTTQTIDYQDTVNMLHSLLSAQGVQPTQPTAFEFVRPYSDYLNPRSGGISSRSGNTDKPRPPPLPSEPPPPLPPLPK

HCC70 cells = experiment: Inhibition of cell proliferation (CyQUANT Direct), HCC70; type: cell-based, human; conditions: Homo sapiens, HCC70, 72-hour
Protocol: as §1

Cc1nnc(C)n1-c1ccc2c(-c3nc(N[C@H]4CCCNC4)ncc3C(F)(F)F)c[nH]c2n1 [Compound 140, 4-[6-(3,5-dimethyl-1,2,4-triazol-4-yl)-1H-pyrrolo[2,3-b]pyridin-3-yl]-N-[(3S)-3-piperidyl]-5-(trifluoromethyl)pyrimidin-2-amine]
IC50 (COV504 cells): 100 to 500 nM
IC50 (CDK2/Cyclin E1 complex): > 500 nM
IC50 (MB453 cells): 500 to 1000 nM
IC50 (COV318 cells): > 1000 nM
IC50 [1]: > 500 nM
IC50 [2]: < 30 nM
IC50 (CDK9/Cyclin T1 complex): > 500 nM
IC50 (HCC70 cells): > 1000 nM

Cc1nnnn1-c1ccc2c(-c3nc(N[C@H]4CCCNC4)ncc3C(F)(F)F)c[nH]c2n1 [Compound 141, 4-[6-(5-methyltetrazol-1-yl)-1H-pyrrolo[2,3-b]pyridin-3-yl]-N-[(3S)-3-piperidyl]-5-(trifluoromethyl)pyrimidin-2-amine]
IC50 (COV504 cells): < 100 nM
IC50 (CDK2/Cyclin E1 complex): > 500 nM
IC50 (MB453 cells): 100 to 500 nM
IC50 (COV318 cells): 100 to 500 nM
IC50 [1]: > 500 nM
IC50 [2]: < 30 nM
IC50 (CDK9/Cyclin T1 complex): > 500 nM
IC50 (HCC70 cells): 100 to 500 nM

Cc1nsc(-c2ccc3c(-c4nc(N[C@H]5CCCNC5)ncc4C(F)(F)F)c[nH]c3n2)n1 [Compound 142]
IC50 (COV504 cells): < 100 nM
IC50 (CDK2/Cyclin E1 complex): > 500 nM
IC50 (MB453 cells): < 100 nM
IC50 (COV318 cells): 500 to 1000 nM
IC50 [1]: > 500 nM
IC50 [2]: < 30 nM
IC50 (CDK9/Cyclin T1 complex): > 500 nM
IC50 (HCC70 cells): < 100 nM

Cc1noc(C)c1-c1ccc2c(-c3nc(N[C@H]4CCC(C)(C)NC4)ncc3C(F)(F)F)n[nH]c2n1 [Compound 144]
IC50 (COV504 cells): < 100 nM
IC50 (CDK2/Cyclin E1 complex): > 500 nM
IC50 (MB453 cells): < 100 nM
IC50 (COV318 cells): > 1000 nM
IC50 [1]: > 500 nM
IC50 [2]: < 30 nM
IC50 (CDK9/Cyclin T1 complex): > 500 nM
IC50 (HCC70 cells): < 100 nM

CNC(=O)[C@H]1CNC[C@@H](Nc2ncc(C(F)(F)F)c(-c3c[nH]c4nc(-c5nccs5)ccc34)n2)C1 [Compound 145, (3R, 5S)—N-methyl-5-[[4-(6-thiazol-2-yl-1H-pyrrolo[2,3-b]pyridin-3-yl)-5-(trifluoromethyl)pyrimidin-2-yl]amino]piperidine-3-carboxamide]
IC50 (COV504 cells): 100 to 500 nM
IC50 (CDK2/Cyclin E1 complex): > 500 nM
IC50 (MB453 cells): 100 to 500 nM
IC50 (COV318 cells): > 1000 nM
IC50 [1]: > 500 nM
IC50 [2]: < 30 nM
IC50 (CDK9/Cyclin T1 complex): > 500 nM
IC50 (HCC70 cells): 100 to 500 nM

Cc1noc(C)c1-c1ccc2c(-c3nc(N[C@@H]4CNC[C@H](O)C4)ncc3C(F)(F)F)n[nH]c2n1 [Compound 146, (3R, 5S)-5-[[4-[6-(3,5-dimethylisoxazol-4-yl)-1H-pyrazolo[3,4-b]pyridin-3-yl]-5-(trifluoromethyl)pyrimidin-2-yl]amino]piperidin-3-ol]
IC50 (COV504 cells): 100 to 500 nM
IC50 (CDK2/Cyclin E1 complex): > 500 nM
IC50 (MB453 cells): 100 to 500 nM
IC50 (COV318 cells): > 1000 nM
IC50 [1]: > 500 nM
IC50 [2]: < 30 nM
IC50 (CDK9/Cyclin T1 complex): > 500 nM
IC50 (HCC70 cells): 500 to 1000 nM

Cc1nocc1-c1ccc2c(-c3nc(N[C@@H]4CNC[C@H](O)C4)ncc3C(F)(F)F)c[nH]c2n1 [Compound 148, (3R,5S)-5-[[4-[6-(3-methylisoxazol-4-yl)-1H-pyrrolo[2,3-b]pyridin-3-yl]-5-(trifluoromethyl)pyrimidin-2-yl]amino]piperidin-3-ol]
IC50 (COV504 cells): 500 to 1000 nM
IC50 (CDK2/Cyclin E1 complex): > 500 nM
IC50 (MB453 cells): 100 to 500 nM
IC50 (COV318 cells): > 1000 nM
IC50 [1]: > 500 nM
IC50 [2]: < 30 nM
IC50 (CDK9/Cyclin T1 complex): > 500 nM
IC50 (HCC70 cells): > 1000 nM

Cc1nscc1-c1ccc2c(-c3nc(N[C@H]4CCCNC4)ncc3C(F)(F)F)c[nH]c2n1 [Compound 149]
IC50 (COV504 cells): < 100 nM
IC50 (CDK2/Cyclin E1 complex): > 500 nM
IC50 (MB453 cells): < 100 nM
IC50 (COV318 cells): < 100 nM
IC50 [1]: > 500 nM
IC50 [2]: < 30 nM
IC50 (CDK9/Cyclin T1 complex): > 500 nM
IC50 (HCC70 cells): < 100 nM

C[C@H]1CC[C@H](Nc2ncc(C(F)(F)F)c(-c3c[nH]c4nc(-c5cnnn5C)ccc34)n2)CN1 [Compound 150, N-[(3S,6S)-6-methyl-3-piperidyl]-4-[6-(3-methyltriazol-4-yl)-1H-pyrrolo[2,3-b]pyridin-3-yl]-5-(trifluoromethyl)pyrimidin-2-amine]
IC50 (COV504 cells): < 100 nM
IC50 (CDK2/Cyclin E1 complex): > 500 nM
IC50 (MB453 cells): < 100 nM
IC50 (COV318 cells): 100 to 500 nM
IC50 [1]: > 500 nM
IC50 [2]: < 30 nM
IC50 (CDK9/Cyclin T1 complex): > 500 nM
IC50 (HCC70 cells): 100 to 500 nM

C[C@@H]1CC[C@@H](Nc2ncc(C(F)(F)F)c(-c3c[nH]c4nc(-c5cnnn5C)ccc34)n2)CN1 [Compound 151, N-[(3R,6R)-6-methyl-3-piperidyl]-4-[6-(3-methyltriazol-4-yl)-1H-pyrrolo[2,3-b]pyridin-3-yl]-5-(trifluoromethyl)pyrimidin-2-amine]
IC50 (COV504 cells): > 1000 nM
IC50 (CDK2/Cyclin E1 complex): > 500 nM
IC50 (MB453 cells): 500 to 1000 nM
IC50 (COV318 cells): > 1000 nM
IC50 [1]: > 500 nM
IC50 [2]: < 30 nM
IC50 (CDK9/Cyclin T1 complex): > 500 nM
IC50 (HCC70 cells): > 1000 nM

Cc1noc(C)c1-c1ccc2c(-c3nc(N[C@@H]4CC[C@@H](C)NC4)ncc3C(F)(F)F)n[nH]c2n1 [Compound 153, 4-[6-(3,5-dimethylisoxazol-4-yl)-1H-pyrazolo[3,4-b]pyridin-3-yl]-N-[(3R,6R)-6-methyl-3-piperidyl]-5-(trifluoromethyl)pyrimidin-2-amine]
IC50 (COV504 cells): < 100 nM
IC50 (CDK2/Cyclin E1 complex): > 500 nM
IC50 (MB453 cells): < 100 nM
IC50 (COV318 cells): < 100 nM
IC50 [1]: > 500 nM
IC50 [2]: < 30 nM
IC50 (CDK9/Cyclin T1 complex): > 500 nM
IC50 (HCC70 cells): < 100 nM

Cc1nnc(-c2ccc3c(-c4nc(N[C@H]5CC[C@H](C)NC5)ncc4C(F)(F)F)c[nH]c3n2)s1 [Compound 154, N-[(3S,6S)-6-methyl-3-piperidyl]-4-[6-(5-methyl-1,3,4-thiadiazol-2-yl)-1H-pyrrolo[2,3-b]pyridin-3-yl]-5-(trifluoromethyl)pyrimidin-2-amine]
IC50 (COV504 cells): 100 to 500 nM
IC50 (CDK2/Cyclin E1 complex): > 500 nM
IC50 (MB453 cells): > 1000 nM
IC50 (COV318 cells): > 1000 nM
IC50 [1]: > 500 nM
IC50 [2]: < 30 nM
IC50 (CDK9/Cyclin T1 complex): > 500 nM
IC50 (HCC70 cells): 100 to 500 nM

Cc1nnc(-c2ccc3c(-c4nc(N[C@H]5CCCNC5)ncc4C(F)(F)F)c[nH]c3n2)s1 [Compound 155, 4-[6-(5-methyl-1,3,4-thiadiazol-2-yl)-1H-pyrrolo[2,3-b]pyridin-3-yl]-N-[(3S)-3-piperidyl]-5-(trifluoromethyl)pyrimidin-2-amine]
IC50 (COV504 cells): < 100 nM
IC50 (CDK2/Cyclin E1 complex): > 500 nM
IC50 (MB453 cells): < 100 nM
IC50 (COV318 cells): < 100 nM
IC50 [1]: > 500 nM
IC50 [2]: < 30 nM
IC50 (CDK9/Cyclin T1 complex): > 500 nM
IC50 (HCC70 cells): < 100 nM

Cc1nocc1-c1ccc2c(-c3nc(N[C@H]4CC[C@H](C)NC4)ncc3C(F)(F)F)c[nH]c2n1 [Compound 156, 4-[6-(3-methylisoxazol-4-yl)-1H-pyrrolo[2,3-b]pyridin-3-yl]-N-[(3S,6S)-6-methyl-3-piperidyl]-5-(trifluoromethyl)pyrimidin-2-amine]
IC50 (COV504 cells): 100 to 500 nM
IC50 (CDK2/Cyclin E1 complex): > 500 nM
IC50 (MB453 cells): 100 to 500 nM
IC50 (COV318 cells): > 1000 nM
IC50 [1]: > 500 nM
IC50 [2]: < 30 nM
IC50 (CDK9/Cyclin T1 complex): > 500 nM
IC50 (HCC70 cells): 500 to 1000 nM

Cc1nocc1-c1ccc2c(-c3nc(N[C@@H]4CC[C@@H](C)NC4)ncc3C(F)(F)F)c[nH]c2n1 [Compound 157, 4-[6-(3-methylisoxazol-4-yl)-1H-pyrrolo[2,3-b]pyridin-3-yl]-N-[(3R,6R)-6-methyl-3-piperidyl]-5-(trifluoromethyl)pyrimidin-2-amine]
IC50 (COV504 cells): < 100 nM
IC50 (CDK2/Cyclin E1 complex): > 500 nM
IC50 (MB453 cells): < 100 nM
IC50 (COV318 cells): < 100 nM
IC50 [1]: > 500 nM
IC50 [2]: < 30 nM
IC50 (CDK9/Cyclin T1 complex): > 500 nM
IC50 (HCC70 cells): < 100 nM

Cc1nnc(-c2ccc3c(-c4nc(N[C@@H]5CC[C@@H](C)NC5)ncc4C(F)(F)F)c[nH]c3n2)s1 [Compound 158, N-[(3R,6R)-6-methyl-3-piperidyl]-4-[6-(5-methyl-1,3,4-thiadiazol-2-yl)-1H-pyrrolo[2,3-b]pyridin-3-yl]-5-(trifluoromethyl)pyrimidin-2-amine]
IC50 (COV504 cells): < 100 nM
IC50 (CDK2/Cyclin E1 complex): > 500 nM
IC50 (MB453 cells): < 100 nM
IC50 (COV318 cells): 100 to 500 nM
IC50 [1]: > 500 nM
IC50 [2]: < 30 nM
IC50 (CDK9/Cyclin T1 complex): > 500 nM
IC50 (HCC70 cells): < 100 nM

Cc1nsc(-c2ccc3c(-c4nc(N[C@@H]5CC[C@@H](C)NC5)ncc4C(F)(F)F)c[nH]c3n2)n1 [Compound 159, N-[(3R,6R)-6-methyl-3-piperidyl]-4-[6-(3-methyl-1,2,4-thiadiazol-5-yl)-1H-pyrrolo[2,3-b]pyridin-3-yl]-5-(trifluoromethyl)pyrimidin-2-amine]
IC50 (COV504 cells): < 100 nM
IC50 (CDK2/Cyclin E1 complex): > 500 nM
IC50 (MB453 cells): < 100 nM
IC50 (COV318 cells): > 1000 nM
IC50 [1]: > 500 nM
IC50 [2]: < 30 nM
IC50 (CDK9/Cyclin T1 complex): > 500 nM
IC50 (HCC70 cells): < 100 nM
